pIC50: −log10 of the molar value.
Tested on: 186277-243-T-J2-PDC spheroids with HUVEC/MSC, viability
Test: Anticancer human tumor 186277-243-T-J2-PDC patient-derived colon adenocarcinoma cell line growth inhibition [CLK]
Settings: for pIC50: curve of first compound; for viability, T/C: stronger effect = lower value
Outline: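 Patient-derived tumor cells grown as complex spheroids with HUVEC endothelial cells and mesenchymal stem cells, treated with drug combinations. Concentrations descend in half-log steps from near clinical Cmax, or from 10 microM if Cmax unknown.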

[1] = second compound 0.0316 µM, first compound 0.0316 µM
[2] = second compound 0.0316 µM, first compound 0.1 µM
[3] = second compound 0.0316 µM, first compound 0.316 µM
[4] = second compound 0.0316 µM, first compound 1 µM
[5] = second compound 0.0316 µM, first compound 3.16 µM
[6] = second compound 0.0316 µM, first compound 10 µM
[7] = second compound 0.1 µM, first compound 0.0316 µM
[8] = second compound 0.1 µM, first compound 0.1 µM
[9] = second compound 0.1 µM, first compound 0.316 µM
[10] = second compound 0.1 µM, first compound 1 µM
[11] = second compound 0.1 µM, first compound 3.16 µM
[12] = second compound 0.1 µM, first compound 10 µM
[13] = second compound 0.316 µM, first compound 0.0316 µM
[14] = second compound 0.316 µM, first compound 0.1 µM
[15] = second compound 0.316 µM, first compound 0.316 µM
[16] = second compound 0.316 µM, first compound 1 µM
[17] = second compound 0.316 µM, first compound 3.16 µM
[18] = second compound 0.316 µM, first compound 10 µM
[19] = second compound 1 µM, first compound 0.0316 µM
[20] = second compound 1 µM, first compound 0.1 µM
[21] = second compound 1 µM, first compound 0.316 µM
[22] = second compound 1 µM, first compound 1 µM
[23] = second compound 1 µM, first compound 3.16 µM
[24] = second compound 1 µM, first compound 10 µM
[25] = second compound 3.16 µM, first compound 0.0316 µM
[26] = second compound 3.16 µM, first compound 0.1 µM
[27] = second compound 3.16 µM, first compound 0.316 µM
[28] = second compound 3.16 µM, first compound 1 µM
[29] = second compound 3.16 µM, first compound 3.16 µM
[30] = second compound 3.16 µM, first compound 10 µM
[31] = second compound 10 µM, first compound 0.0316 µM
[32] = second compound 10 µM, first compound 0.1 µM
[33] = second compound 10 µM, first compound 0.316 µM
[34] = second compound 10 µM, first compound 1 µM
[35] = second compound 10 µM, first compound 3.16 µM
[36] = second compound 10 µM, first compound 10 µM
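Further: compound exposure lasted seven days before readout.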
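Wherever viability, T/C is given: 100% = DMSO vehicle control wells.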

O=C(c1cc(Cc2n[nH]c(=O)c3ccccc23)ccc1F)N1CCN(C(=O)C2CC2)CC1 + CNC(=O)c1ccc(Nc2nc(OC3CCCC3)c3c(-c4ccc5nc(C)oc5c4)c[nH]c3n2)c(OC)c1 showed a pIC50 (second compound 0.0316 µM) of less than 5.00, a pIC50 (second compound 0.1 µM) of less than 5.00 and a pIC50 (second compound 0.316 µM) of less than 5.00. The pIC50 (second compound 1 µM) was greater than 7.50, the pIC50 (second compound 3.16 µM) was greater than 7.50 and the pIC50 (second compound 10 µM) was greater than 7.50. The viability, T/C [1] was 129%, the viability, T/C [2] was 119% and the viability, T/C [3] was 113%. The viability, T/C [4] was 109%, the viability, T/C [5] was 115% and the viability, T/C [6] was 120%. The viability, T/C [7] was 88.7%, the viability, T/C [8] was 81.7% and the viability, T/C [9] was 88.3%. The viability, T/C [10] was 81.2%, the viability, T/C [11] was 83.1% and the viability, T/C [12] was 84.1%. The viability, T/C [13] was 55.8%, the viability, T/C [14] was 52.3% and the viability, T/C [15] was 55.4%. It also gave a viability, T/C [16] of 56.7%, a viability, T/C [17] of 57.3% and a viability, T/C [18] of 57.6%. It also gave a viability, T/C [19] of 39.5%, a viability, T/C [20] of 39.7% and a viability, T/C [21] of 41.7%. For the same molecule, the viability, T/C [22] was 37.7%, the viability, T/C [23] was 41.8% and the viability, T/C [24] was 43.9%. For the same molecule, the viability, T/C [25] was 36.8%, the viability, T/C [26] was 36.6% and the viability, T/C [27] was 34.9%. The viability, T/C [28] was 36.7%, the viability, T/C [29] was 38.1% and the viability, T/C [30] was 39.6%. It also gave a viability, T/C [31] of 37.7%, a viability, T/C [32] of 37.5% and a viability, T/C [33] of 37.9%. For the same molecule, the viability, T/C [34] was 36.5%, the viability, T/C [35] was 39.9% and the viability, T/C [36] was 35.5%.
For CCCS(=O)(=O)Nc1ccc(F)c(C(=O)c2c[nH]c3ncc(-c4ccc(Cl)cc4)cc23)c1F + CNC(=O)c1ccc(Nc2nc(OC3CCCC3)c3c(-c4ccc5nc(C)oc5c4)c[nH]c3n2)c(OC)c1, the pIC50 (second compound 0.0316 µM) was less than 5.00, the pIC50 (second compound 0.1 µM) was 5.16 and the pIC50 (second compound 0.316 µM) was 5.44. For the same molecule, the pIC50 (second compound 1 µM) was greater than 7.50, the pIC50 (second compound 3.16 µM) was greater than 7.50 and the pIC50 (second compound 10 µM) was greater than 7.50. The viability, T/C [1] was 105%, the viability, T/C [2] was 101% and the viability, T/C [3] was 98.5%. It also gave a viability, T/C [4] of 110%, a viability, T/C [5] of 103% and a viability, T/C [6] of 78.8%. It also gave a viability, T/C [7] of 77%, a viability, T/C [8] of 77.5% and a viability, T/C [9] of 73.7%. It also gave a viability, T/C [10] of 92.5%, a viability, T/C [11] of 79.2% and a viability, T/C [12] of 36.7%. The viability, T/C [13] was 50.8%, the viability, T/C [14] was 53% and the viability, T/C [15] was 58.7%. The viability, T/C [16] was 63.6%, the viability, T/C [17] was 51.7% and the viability, T/C [18] was 25.9%. For the same molecule, the viability, T/C [19] was 38.9%, the viability, T/C [20] was 38.2% and the viability, T/C [21] was 39.6%. It also gave a viability, T/C [22] of 44.6%, a viability, T/C [23] of 36.4% and a viability, T/C [24] of 27.3%. The viability, T/C [25] was 33.2%, the viability, T/C [26] was 37.9% and the viability, T/C [27] was 37.9%. The viability, T/C [28] was 37.1%, the viability, T/C [29] was 33.3% and the viability, T/C [30] was 21.6%. For the same molecule, the viability, T/C [31] was 37.4%, the viability, T/C [32] was 39.2% and the viability, T/C [33] was 36.6%. The viability, T/C [34] was 34.8%, the viability, T/C [35] was 31.6% and the viability, T/C [36] was 24.5%.
Nc1ccn(C2OC(CO)C(O)C2(F)F)c(=O)n1 (stereo not drawn) + CN1CCN(c2cc(C(=O)Nc3cc4cc(-c5cnn(C)c5)ccc4cn3)ccn2)CC1 showed a pIC50 (second compound 0.0316 µM) greater than 7.50, a pIC50 (second compound 0.1 µM) greater than 7.50 and a pIC50 (second compound 0.316 µM) greater than 7.50. For the same molecule, the pIC50 (second compound 1 µM) was greater than 7.50, the pIC50 (second compound 3.16 µM) was greater than 7.50 and the pIC50 (second compound 10 µM) was greater than 7.50. The viability, T/C [1] was 14%, the viability, T/C [2] was 14.4% and the viability, T/C [3] was 13.2%. For the same molecule, the viability, T/C [4] was 15.4%, the viability, T/C [5] was 15.7% and the viability, T/C [6] was 15%. It also gave a viability, T/C [7] of 14.1%, a viability, T/C [8] of 15.4% and a viability, T/C [9] of 13.7%. It also gave a viability, T/C [10] of 15.4%, a viability, T/C [11] of 13.6% and a viability, T/C [12] of 13.5%. The viability, T/C [13] was 14.8%, the viability, T/C [14] was 12.4% and the viability, T/C [15] was 13.9%. For the same molecule, the viability, T/C [16] was 12%, the viability, T/C [17] was 8.4% and the viability, T/C [18] was 7.19%. For the same molecule, the viability, T/C [19] was 1.75%, the viability, T/C [20] was 1.77% and the viability, T/C [21] was 1.48%. It also gave a viability, T/C [22] of 0.16%, a viability, T/C [23] of 0.64% and a viability, T/C [24] of 0.64%. For the same molecule, the viability, T/C [25] was 1.77%, the viability, T/C [26] was 1.46% and the viability, T/C [27] was 0.93%. For the same molecule, the viability, T/C [28] was 4.16%, the viability, T/C [29] was 2.01% and the viability, T/C [30] was 0.57%. It also gave a viability, T/C [31] of 0.82%, a viability, T/C [32] of 0.83% and a viability, T/C [33] of 0.9%. For the same molecule, the viability, T/C [34] was 1.08%, the viability, T/C [35] was 0.95% and the viability, T/C [36] was 0.6%.
For C=CC(=O)N1CCN(c2nc(=O)n(-c3c(C)ccnc3C(C)C)c3nc(-c4c(O)cccc4F)c(F)cc23)C(C)C1 (stereo not drawn) + CN1CCN(c2cc(C(=O)Nc3cc4cc(-c5cnn(C)c5)ccc4cn3)ccn2)CC1, the pIC50 (second compound 0.0316 µM) was less than 5.00, the pIC50 (second compound 0.1 µM) was less than 5.00 and the pIC50 (second compound 0.316 µM) was greater than 7.50. It also gave a pIC50 (second compound 1 µM) greater than 7.50, a pIC50 (second compound 3.16 µM) greater than 7.50 and a pIC50 (second compound 10 µM) greater than 7.50. It also gave a viability, T/C [1] of 97.2%, a viability, T/C [2] of 108% and a viability, T/C [3] of 102%. The viability, T/C [4] was 98.8%, the viability, T/C [5] was 102% and the viability, T/C [6] was 86.6%. For the same molecule, the viability, T/C [7] was 102%, the viability, T/C [8] was 81% and the viability, T/C [9] was 90.5%. For the same molecule, the viability, T/C [10] was 84.1%, the viability, T/C [11] was 86.2% and the viability, T/C [12] was 72.4%. It also gave a viability, T/C [13] of 29.7%, a viability, T/C [14] of 28.8% and a viability, T/C [15] of 29.5%. It also gave a viability, T/C [16] of 24.8%, a viability, T/C [17] of 30.8% and a viability, T/C [18] of 11%. It also gave a viability, T/C [19] of 0.72%, a viability, T/C [20] of 1.4% and a viability, T/C [21] of 0.59%. The viability, T/C [22] was 1.74%, the viability, T/C [23] was 1.4% and the viability, T/C [24] was 1.65%. It also gave a viability, T/C [25] of 0.98%, a viability, T/C [26] of 1.19% and a viability, T/C [27] of 1.22%. The viability, T/C [28] was 2.38%, the viability, T/C [29] was 2.84% and the viability, T/C [30] was 1.94%. The viability, T/C [31] was 0.63%, the viability, T/C [32] was 0.71% and the viability, T/C [33] was 1.36%. For the same molecule, the viability, T/C [34] was 1.03%, the viability, T/C [35] was 2.23% and the viability, T/C [36] was 1.12%.
